Assay [1] has as its target Macrophage-stimulating protein receptor (Homo sapiens, UniProt Q04912). Kind of assay: Inhibition of human RON.
For assay [2], the target named is Hepatocyte growth factor receptor (Homo sapiens, UniProt P08581). Kind of assay: Inhibition of c-Met phosphorylation in human MKN45 cells. The class given is cell-based, MKN-45.
Sequence of Hepatocyte growth factor receptor (P08581 whole entry): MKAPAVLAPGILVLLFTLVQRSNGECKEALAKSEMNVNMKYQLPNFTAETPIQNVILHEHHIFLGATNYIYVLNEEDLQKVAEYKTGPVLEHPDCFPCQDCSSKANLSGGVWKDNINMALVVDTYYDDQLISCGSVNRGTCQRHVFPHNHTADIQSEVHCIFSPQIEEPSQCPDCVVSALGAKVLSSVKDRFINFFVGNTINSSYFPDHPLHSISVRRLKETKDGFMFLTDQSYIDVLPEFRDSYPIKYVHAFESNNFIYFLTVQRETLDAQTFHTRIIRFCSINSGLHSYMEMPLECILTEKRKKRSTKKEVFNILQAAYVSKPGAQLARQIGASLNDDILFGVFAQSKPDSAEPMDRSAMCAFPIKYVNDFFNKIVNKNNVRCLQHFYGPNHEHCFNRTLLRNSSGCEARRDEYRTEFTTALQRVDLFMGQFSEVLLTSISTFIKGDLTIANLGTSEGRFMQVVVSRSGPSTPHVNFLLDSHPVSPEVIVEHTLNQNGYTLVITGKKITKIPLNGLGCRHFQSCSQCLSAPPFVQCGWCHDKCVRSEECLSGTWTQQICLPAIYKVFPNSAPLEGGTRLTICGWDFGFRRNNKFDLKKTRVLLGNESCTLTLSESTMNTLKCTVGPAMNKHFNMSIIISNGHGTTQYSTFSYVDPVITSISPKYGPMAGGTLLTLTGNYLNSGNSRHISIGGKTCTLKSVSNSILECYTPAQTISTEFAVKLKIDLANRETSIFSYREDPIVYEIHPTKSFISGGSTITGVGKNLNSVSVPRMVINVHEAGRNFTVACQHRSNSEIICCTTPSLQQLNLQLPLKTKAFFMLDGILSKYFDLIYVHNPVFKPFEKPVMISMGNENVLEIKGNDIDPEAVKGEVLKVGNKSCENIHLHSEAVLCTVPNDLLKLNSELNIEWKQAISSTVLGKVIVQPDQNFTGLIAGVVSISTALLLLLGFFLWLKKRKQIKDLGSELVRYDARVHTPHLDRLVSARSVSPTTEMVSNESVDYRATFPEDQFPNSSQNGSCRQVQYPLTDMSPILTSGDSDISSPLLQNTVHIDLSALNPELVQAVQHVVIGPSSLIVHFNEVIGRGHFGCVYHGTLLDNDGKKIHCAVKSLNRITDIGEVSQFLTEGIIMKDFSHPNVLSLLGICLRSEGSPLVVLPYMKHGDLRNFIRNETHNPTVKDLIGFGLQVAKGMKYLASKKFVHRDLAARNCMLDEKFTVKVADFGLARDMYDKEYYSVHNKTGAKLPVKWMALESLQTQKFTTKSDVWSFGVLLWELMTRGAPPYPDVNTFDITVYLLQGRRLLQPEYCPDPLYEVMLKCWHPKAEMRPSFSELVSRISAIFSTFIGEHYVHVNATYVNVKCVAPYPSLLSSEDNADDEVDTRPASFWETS

Sequence of Macrophage-stimulating protein receptor (Q04912 25-304 limits assumed): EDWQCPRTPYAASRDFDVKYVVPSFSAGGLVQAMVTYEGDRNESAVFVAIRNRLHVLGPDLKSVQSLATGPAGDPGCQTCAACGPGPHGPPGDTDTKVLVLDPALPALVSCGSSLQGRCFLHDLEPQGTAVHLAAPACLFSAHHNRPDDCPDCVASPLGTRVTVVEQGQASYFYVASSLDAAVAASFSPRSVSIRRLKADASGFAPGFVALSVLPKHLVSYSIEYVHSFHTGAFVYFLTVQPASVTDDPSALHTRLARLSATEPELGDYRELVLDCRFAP
Sequence of Macrophage-stimulating protein receptor (Q04912 310-1400 limits assumed): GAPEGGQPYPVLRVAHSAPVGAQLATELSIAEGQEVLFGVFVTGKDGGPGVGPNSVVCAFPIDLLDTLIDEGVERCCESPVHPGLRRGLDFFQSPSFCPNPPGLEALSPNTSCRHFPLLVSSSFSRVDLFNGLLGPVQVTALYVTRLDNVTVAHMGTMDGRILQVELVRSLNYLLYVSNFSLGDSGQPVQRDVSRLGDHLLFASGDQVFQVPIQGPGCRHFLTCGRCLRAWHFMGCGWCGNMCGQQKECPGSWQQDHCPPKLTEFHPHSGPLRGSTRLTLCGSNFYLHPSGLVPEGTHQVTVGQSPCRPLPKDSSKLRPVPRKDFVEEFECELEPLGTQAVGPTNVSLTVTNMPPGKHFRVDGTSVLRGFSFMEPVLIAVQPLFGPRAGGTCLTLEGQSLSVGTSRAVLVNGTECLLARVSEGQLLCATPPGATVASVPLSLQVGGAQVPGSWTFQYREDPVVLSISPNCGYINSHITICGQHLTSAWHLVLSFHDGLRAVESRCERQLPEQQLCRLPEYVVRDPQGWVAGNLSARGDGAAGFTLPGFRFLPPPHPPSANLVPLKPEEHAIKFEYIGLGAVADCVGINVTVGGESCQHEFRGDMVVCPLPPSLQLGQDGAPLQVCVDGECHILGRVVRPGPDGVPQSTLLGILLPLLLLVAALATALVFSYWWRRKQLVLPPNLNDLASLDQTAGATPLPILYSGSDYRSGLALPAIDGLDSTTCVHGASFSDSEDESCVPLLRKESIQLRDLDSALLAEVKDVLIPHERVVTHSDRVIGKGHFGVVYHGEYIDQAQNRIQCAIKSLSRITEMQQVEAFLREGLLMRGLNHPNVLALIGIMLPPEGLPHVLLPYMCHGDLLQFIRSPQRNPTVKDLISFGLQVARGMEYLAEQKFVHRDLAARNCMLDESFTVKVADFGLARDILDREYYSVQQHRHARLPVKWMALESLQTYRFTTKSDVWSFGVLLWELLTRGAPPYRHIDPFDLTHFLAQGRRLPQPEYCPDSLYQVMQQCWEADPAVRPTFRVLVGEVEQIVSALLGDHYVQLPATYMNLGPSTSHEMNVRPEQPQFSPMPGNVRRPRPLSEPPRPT

Usually IC50 stands for the concentration that gives 50% inhibition. Read a high IC50 as a need for much substance. In assay [1], `Cn1cnc(-c2cc3nccc(Oc4ccc(NC(=O)c5cc(-c6ccccc6)n(-c6ccccc6)c5)cc4F)c3s2)c1` returned an IC50 of 101 nM.
The same measure, in the same setting: as for `COc1cccc(-c2c(C(=O)Nc3ccc(Oc4ccnc5cc(-c6cn(C)cn6)sc45)c(F)c3)cnn2-c2ccccc2)c1`, the figure is 27 nM.
In turn, `COc1ccc(-c2c(C(=O)Nc3ccc(Oc4ccnc5cc(-c6cn(C)cn6)sc45)c(F)c3)cnn2-c2ccccc2)cc1` displayed a concentration for half-maximal inhibition (IC50) in assay [2] above 10000 nM.
Same read-out and setting: to `Cn1cnc(-c2cc3nccc(Oc4ccc(NC(=O)c5cnn(-c6ccccc6)c5-c5ccncc5)cc4F)c3s2)c1` belongs above 10000 nM.

The record behind these values is ChEMBL document CHEMBL3608230, “Design, synthesis and RON receptor tyrosine kinase inhibitory activity of new head groups analogs of LCRF-0004” (Bioorg Med Chem Lett, 2015).
